Experimental data from patent publication US20250186391A1, “ORAL COMPLEMENT FACTOR D INHIBITORS” (BioCryst Pharmaceuticals, Inc., priority 2019, published 2025).

biological target: Factor D (Homo sapiens (Human), UniProt P00746); experiment: Factor D esterolytic assay; assay type: biochemical; conditions: Z-Lys-SBzl substrate, 100 mM HEPES, 500 mM NaCl, pH 7.5, 10% DMSO; tested a minimum of three times; read-out: Measured Ki (IC50) Value for Compounds: IC50
Protocol: The IC50 value of a compound (i.e., the concentration of the compound that inhibits 50% of the enzymatic activity) was calculated according to the procedure reported in U.S. Pat. No. 6,653,340 B1, e.g., column 74 (incorporated by reference).
Specifically, the compounds were dissolved in a stock solution of DMSO at 10.0 or 100 mM. A portion of this stock solution was added to assay buffer in a final volume of 50 μL. Controls included buffer alone and enzyme solutions to which DMSO was added. Substrate was added to the reaction wells immediately or after incubation at room temperature. The reaction rates were measured spectrophotometrically by the generation of product at 405 nm for 600 sec. Background absorbance at 690 nm was measured and subtracted from the absorbance at 405 nm for each well.
The reaction rate for enzyme alone was compared to the rate of enzyme in the presence of inhibitor and the percent inhibition was calculated as shown below: […]
An established esterolytic assay for the measurement of Factor D activity and inhibition of Factor D activity was used (Kam, C. M.; McRae, B. J.; Harper, J. W.; Niemann, M. A.; Volanakis, J. E.; Powers, J. C. Human complement proteins D, C2, and B Active site mapping with peptide thioester substrates. J Biol. Chem. 1987, 262, 3444-3451). For this assay Z-Lys-SBzl, 1.29 mM (Kim, S.; Narayana, S. V. L; Volanakis, J. E. Mutational analysis of the substrate binding site of human complement Factor D. Biochemistry. 1994, 33, 14393-14399.) was used as the substrate for Factor D ([…]). Hydrolysis of this compound by Factor D liberated a free sulfhydryl group which is then reacted with 5,5′-dithiobis(2nitrobenzoic acid) producing an intense yellow color (Habeeb, A. F. S. A. Reaction of protein sulfhydryl groups with Ellman's Reagent. Methods in Enzymol. 1976, 25, 457-464.). The assays were performed in 96 well microtiter plates and rates of hydrolysis were monitored at 405 nm on a Biotek Synergy H1 plate reader. Hydrolysis rates were reported as change in mOD/min. The assay was conducted in 100 mM HEPES, 500 mM NaCl, pH 7.5 containing 10% DMSO in a final volume of 50 μL per well.
An IC50, a compound concentration which inhibits 50% of the enzymatic activity, was calculated. Compounds in the examples were tested a minimum of three times.

Sequence of Factor D (P00746 26-253): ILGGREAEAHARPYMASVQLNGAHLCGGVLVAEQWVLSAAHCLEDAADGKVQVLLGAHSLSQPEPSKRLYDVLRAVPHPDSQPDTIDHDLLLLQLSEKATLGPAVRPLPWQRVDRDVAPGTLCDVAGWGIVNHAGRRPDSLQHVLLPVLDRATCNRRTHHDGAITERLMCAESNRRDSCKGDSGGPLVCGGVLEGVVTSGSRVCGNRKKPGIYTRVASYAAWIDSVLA

Compared with CC(C)n1nc(COc2ccccc2CC(=O)O)c2cc(-c3ccc(N)cc3)ccc21 [Compound 322c, 2-(2-((5-(4-aminophenyl)-1-isopropyl-1H-indazol-3-yl)methoxy)phenyl)acetic acid], CC(C)n1nc(COc2ccccc2CC(=O)O)c2cc(-c3cccc(CN)c3O)ccc21 [Compound 318f, 2-(2-((5-(3-(aminomethyl)-2-hydroxyphenyl)-1-isopropyl-1H-indazol-3-yl)methoxy)phenyl)acetic acid] is lower in IC50: greater than 10000 nM for the first, less than 1000 nM for the second.

COc1cccc(CC(=O)O)c1OCc1coc2ccc(-c3cccc(CN)c3)cc12 [Compound 104e, 2-(2-((5-(3-(aminomethyl)phenyl)benzofuran-3-yl)methoxy)-3-methoxyphenyl)acetic acid] and COc1ccc(CC(=O)O)c(OCc2coc3ccc(-c4cccc(CN)c4)cc23)c1 [Compound 48b, 2-(2-((5-(3-(aminomethyl)phenyl)benzofuran-3-yl)methoxy)-4-methoxyphenyl)acetic acid] cannot be ordered by IC50: less than 1000 nM for the first, less than 1000 nM for the second.

NCc1cccc(-c2cc([N+](=O)[O-])c3oc(C(=O)O)c(COc4ccccc4CC(=O)O)c3c2)c1 [Compound 59g, 5-(3-(aminomethyl)phenyl)-3-((2-(carboxymethyl)phenoxy)methyl)-7-nitrobenzofuran-2-carboxylic acid] and CCOC(=O)Nc1cc(-c2cccc(CN)c2)cc2c(COc3ccccc3CC(=O)O)c(C(=O)O)oc12 [Compound 102c, 5-(3-(aminomethyl)phenyl)-3-((2-(carboxymethyl)phenoxy)methyl)-7-((ethoxycarbonyl)amino)benzofuran-2-carboxylic acid] cannot be ordered by IC50: less than 1000 nM for the first, less than 1000 nM for the second.

COc1ccc(CC(=O)O)c(OCc2c(C)oc3ccc(-c4cccc([C@@H](C)N)c4)cc23)c1 [Compound 242b, (R)-2-(2-((5-(3-(1-aminoethyl)phenyl)-2-methylbenzofuran-3-yl)methoxy)-4-methoxyphenyl)acetic acid] and COc1ccc(CC(=O)O)c(OCc2c(C(=O)O)oc3ccc(-c4cccc(CN)c4)cc23)c1 [Compound 61d, 5-(3-(aminomethyl)phenyl)-3-((2-(carboxymethyl)-5-methoxyphenoxy)methyl)benzofuran-2-carboxylic acid] cannot be ordered by IC50: less than 1000 nM for the first, less than 1000 nM for the second.

CCOC(=O)Cc1ccccc1OCc1cc(-c2cccc(CN)c2)c2oc(COc3ccccc3CC(=O)O)cc2c1 [Compound 22e, 2-(2-((7-(3-(aminomethyl)phenyl)-5-((2-(2-ethoxy-2-oxoethyl)phenoxy)methyl)benzofuran-2-yl)methoxy)phenyl)acetic acid] and NCc1cccc(-c2cc(COc3ccccc3CCC(=O)O)cc3cc(COc4ccccc4CC(=O)O)oc23)c1 [Compound 15e, 3-(2-((7-(3-(aminomethyl)phenyl)-2-((2-(carboxymethyl)phenoxy)methyl)benzofuran-5-yl)methoxy)phenyl)propanoic acid] cannot be ordered by IC50: less than 1000 nM for the first, less than 1000 nM for the second.

NCc1cccc(-c2cc(Cl)c3occ(COc4ccccc4CC(=O)O)c3c2)c1 [Compound 127f, 2-(2-((5-(3-(aminomethyl)phenyl)-7-chlorobenzofuran-3-yl)methoxy)phenyl)acetic acid] and NCc1cccc(-c2cc(CN3CCC3)c3occ(COc4ccccc4CC(=O)O)c3c2)c1 [Compound 207d, 2-(2-((5-(3-(aminomethyl)phenyl)-7-(azetidin-1-ylmethyl)benzofuran-3-yl)methoxy)phenyl)acetic acid] cannot be ordered by IC50: less than 1000 nM for the first, less than 1000 nM for the second.

First: CCCC(C(=O)O)c1ccccc1OCc1nn(C(C)C)c2ccc(-c3cccc(CN)c3)cc12 (stereo not shown) [Compound 246f, 2-(2-((5-(3-(aminomethyl)phenyl)-1-isopropyl-1H-indazol-3-yl)methoxy)phenyl)pentanoic acid]
Second: CC(C)n1nc(C(=O)Nc2ccccc2C(=O)O)c2cc(-c3cccc(CN)c3)ccc21 [Compound 314e, 2-(5-(3-(aminomethyl)phenyl)-1-isopropyl-1H-indazole-3-carboxamido)benzoic acid]
The IC50 of the first is lower: 1000 to 10000 nM for the first, greater than 10000 nM for the second.

Compared with NCc1cccc(-c2cccc3cc(COc4ccccc4CCC(=O)O)ccc23)c1 [Compound 43c, 3-(2-((5-(3-(aminomethyl)phenyl)naphthalen-2-yl)methoxy)phenyl)propanoic acid], NCc1cccc(-c2cccc3cc(COc4ccccc4CC(=O)O)oc23)c1 [Compound 19e, 2-(2-((7-(3-(aminomethyl)phenyl)benzofuran-2-yl)methoxy)phenyl)acetic acid] is lower in IC50: greater than 10000 nM for the first, less than 1000 nM for the second. The second is the more potent here.

Going from NCc1cccc(-c2ccc3c(COc4ccccc4CC(=O)O)coc3c2)c1 [Compound 94d, 2-(2-((6-(3-(aminomethyl)phenyl)benzofuran-3-yl)methoxy)phenyl)acetic acid] to NCc1cccc(-c2ccc3occ(COc4cccc(F)c4CC(=O)O)c3c2)c1 [Compound 126f, 2-(2-((5-(3-(aminomethyl)phenyl)benzofuran-3-yl)methoxy)-6-fluorophenyl)acetic acid], the IC50 falls from greater than 10000 nM to less than 1000 nM. The second is the more potent here.

Cc1ccc(CC(=O)O)c(OCc2c3cc(-c4cccc(CN)c4)ccc3nn2C)c1 [Compound 211c, 2-(2-((5-(3-(aminomethyl)phenyl)-2-methyl-2H-indazol-3-yl)methoxy)-4-methylphenyl)acetic acid] and COc1ccc(CC(=O)O)c(OCc2c(C(=O)O)sc3ccc(-c4cccc(CN)c4)cc23)c1 [Compound 62c, 5-(3-(aminomethyl)phenyl)-3-((2-(carboxymethyl)-5-methoxyphenoxy)methyl)benzo[b]thiophene-2-carboxylic acid] cannot be ordered by IC50: less than 1000 nM for the first, less than 1000 nM for the second.

Going from CC(C)n1nc(COc2ccccc2CC(=O)O)c2cc(-c3cc(CN)cc(OCc4cccnc4)c3)ccc21 [Compound 243h, 2-(2-((5-(3-(aminomethyl)-5-(pyridin-3-ylmethoxy)phenyl)-1-isopropyl-1H-indazol-3-yl)methoxy)phenyl)acetic acid] to NCc1cccc(-c2cc(NCc3cccnc3)c3occ(COc4ccccc4CC(=O)O)c3c2)c1 [Compound 187d, 2-(2-((5-(3-(aminomethyl)phenyl)-7-((pyridin-3-ylmethyl)amino)benzofuran-3-yl)methoxy)phenyl)acetic acid], the IC50 falls from greater than 10000 nM to less than 1000 nM. The second is the more potent here.

NCc1cccc(-c2ccc3c(c2)c(COc2ccccc2CC(=O)O)nn3C2CCCCO2)c1 (stereo not shown) [Compound 80d, 2-(2-((5-(3-(aminomethyl)phenyl)-1-(tetrahydro-2H-pyran-2-yl)-1H-indazol-3-yl)methoxy)phenyl)acetic acid] and CC(C)c1oc2ccc(-c3cccc(CN)c3)cc2c1COc1ccccc1CC(=O)O [Compound 142e, 2-(2-((5-(3-(aminomethyl)phenyl)-2-isopropylbenzofuran-3-yl)methoxy)phenyl)acetic acid] cannot be ordered by IC50: less than 1000 nM for the first, less than 1000 nM for the second.

Cn1ccc(COc2cc(-c3cccc(CN)c3)cc3c(COc4ccccc4CC(=O)O)coc23)n1 [Compound 198f, 2-(2-((5-(3-(aminomethyl)phenyl)-7-((1-methyl-1H-pyrazol-3-yl)methoxy)benzofuran-3-yl)methoxy)phenyl)acetic acid] and NCc1cccc(-c2cc(Oc3ccccc3)c3occ(COc4ccccc4CC(=O)O)c3c2)c1 [Compound 194f, 2-(2-((5-(3-(aminomethyl)phenyl)-7-phenoxybenzofuran-3-yl)methoxy)phenyl)acetic acid] cannot be ordered by IC50: less than 1000 nM for the first, less than 1000 nM for the second.

CCCc1oc2ccc(-c3cccc(CN)c3)cc2c1COc1ccccc1CC(=O)O [Compound 286c, 2-(2-((5-(3-(aminomethyl)phenyl)-2-propylbenzofuran-3-yl)methoxy)phenyl)acetic acid] and NCc1cc(F)cc(-c2ccc3occ(COc4ccccc4CC(=O)O)c3c2)c1 [Compound 40c, 2-(2-((5-(3-(aminomethyl)-5-fluorophenyl)benzofuran-3-yl)methoxy)phenyl)acetic acid] cannot be ordered by IC50: less than 1000 nM for the first, less than 1000 nM for the second.

COc1ccc(CC(=O)O)c(OCc2c(-c3ccc(F)cc3)oc3ccc(-c4cccc(CN)c4)cc23)c1 [Compound 168c, 2-(2-((5-(3-(aminomethyl)phenyl)-2-(4-fluorophenyl)benzofuran-3-yl)methoxy)-4-methoxyphenyl)acetic acid] and COc1ccc(CC(=O)O)c(OCc2c(C)oc3c(C4CC4)cc(-c4cccc(CN)c4)cc23)c1 [Compound 273j, 2-(2-((5-(3-(aminomethyl)phenyl)-7-cyclopropyl-2-methylbenzofuran-3-yl)methoxy)-4-methoxyphenyl)acetic acid] cannot be ordered by IC50: less than 1000 nM for the first, less than 1000 nM for the second.

COc1c(CN)cccc1-c1cc2c(COc3ccccc3CC(=O)O)cccc2o1 [Compound 300d, 2-(2-((2-(3-(aminomethyl)-2-methoxyphenyl)benzofuran-4-yl)methoxy)phenyl)acetic acid] showed an IC50 of 1000 to 10000 nM.
